The conditions of series [1]: cited from earlier work.
Series [2] is described as follows: Particle size measurement of Citalopram HBr, Paroxetine HCl and Fluoxetine HCl. It counts as physicochemical. The note with it: for D (v, 0.9) / D (v. 0.1) / Mean, D [4, 3] / Median, D (v, 0.5) / Span / Uniformity: Dispersed in air, Distribution Type: Volume. As for the experimental part:
Particle size measurements were conducted on Paroxetine HCl.

The conditions of series [3]: cited from earlier work. This is another data set of the same source.
For series [4] the following is noted: cited from earlier work. This is another data set of the same source.
The conditions of series [5]: cited from earlier work. The source holds these as a separate data set.
Setting [6] is: 30 mg tablets daily for 30 days, normal male subjects.
Where [7] appears, read: 30 mg tablets daily for 30 days.
Setting [8] is: single dose with and without food.

One may read the Cmax as the peak of the concentration-time curve. As usually defined, the Tmax is the time from dosing to the highest level.

Counter-ions that a name gives are not always drawn. Like-named read-outs stand apart in the source and are kept apart here.

As for `CN(C)CCCC1(c2ccc(F)cc2)OCc2cc(C#N)ccc21` (racemic) [Citalopram, (RS)-1-[3-(dimethylamino)propyl]-1-(4-fluorophenyl)-5-phthalancarbonitrile hydrobromide], the absolute bioavailability result in series [1] (relative to an intravenous dose) is reported as “about 80%”. Further, in series [1] (single oral dose (40 mg tablet)), the “time at which peak blood levels occur” value is “about 4 hours”.

Consider `Br.CN(C)CCCC1(c2ccc(F)cc2)OCc2cc(C#N)ccc21` (centres unmarked) [Citalopram HBr Provided by Supplier 1], for which, in series [2] (Dist. Base: Volume), the “Dia.on % (10.0%)” value was 3.267 µm, the “Dia.on % (20.0%)” value was determined as 4.606 µm, the “Dia.on % (35.0%)” value turned out to be 6.212 µm and the “Dia.on % (70.0%)” value is listed as 10.295 µm. In series [2] (Dist. Base: Volume), the “Dia.on % (90.0%)” value turned out to be 14.874 µm; the “Particle size, C.V.” value was 54.90%; the “Particle size, Mean” value is given as 8.569 µm; the “Particle size, Median” value came out at 7.781 µm. In series [2] (Dist. Base: Volume), the “Particle size, Mode” value was 8,253 µm; the “SP. Area” value is recorded as 10290 cm^2/cm^2; the “Span: (D 20.0-D 10.0)/D50” value is on record as “Span: (D 20.0-D 10.0)/D50 = 0.172”.

Take `Br.CN(C)CCCC1(c2ccc(F)cc2)OCc2cc(C#N)ccc21` (centres unmarked) [Citalopram HBr Provided by Supplier 2]: in series [2], the “D (v, 0.9)” value is 1191.10 µm; the “D (v. 0.1)” value was determined as 1.62 µm; the “Mean, D [4, 3]” value was “Mean, D [4, 3] = 259.27 µm”; the “Median, D (v, 0.5)” value is on record as 7.27 µm. Also, in series [2], the Span entry was “Span = 1.637E+02” and the Uniformity entry is listed as “Uniformity = 3.518E+01”.

As to `CN(C)CCC[C@@]1(c2ccc(F)cc2)OCc2cc(C#N)ccc21` [Escitalopram, S-(+)-1-[3-(dimethyl-amino)propyl]-1-(β-fluorophenyl)-5-phthalancarbonitrile oxalate], in series [3] (dose range of 10 to 30 mg per day), the “single and multiple dose pharmacokinetics” value was “linear and dose proportional”. For the same molecule, in series [3] (single oral dose (20 mg tablet)), the “mean Tmax” value is 5 ± 1.5 h.

Turning to `CNCCC(Oc1ccc(C(F)(F)F)cc1)c1ccccc1.Cl` (centres unmarked) [Fluoxetine HCl Provided by Supplier 1], in series [2] (Dist. Base: Volume), the “Dia.on % (10.0%)” value is given as 7.877 µm, the “Dia.on % (20.0%)” value amounted to 10.941 µm, the “Dia.on % (35.0%)” value is reported as 15.114 µm and the “Dia.on % (70.0%)” value was 29.4885 µm. In series [2] (Dist. Base: Volume), the “Dia.on % (90.0%)” value amounted to 118.199 µm; the “Particle size, C.V.” value turned out to be 161.24%; the “Particle size, Mean” value stood at 45.505 µm; the “Particle size, Median” value worked out at 19.672 µm. In addition, the “SP. Area” value in series [2] (Dist. Base: Volume) came out at 3861 cm^2/cm^2.

As to `CNCCC(Oc1ccc(C(F)(F)F)cc1)c1ccccc1.Cl` (centres unmarked) [Fluoxetine HCl Provided by Supplier 2], in series [2] (Dist. Base: Volume), the “Dia.on % (10.0%)” value was 5.668 µm, the “Dia.on % (20.0%)” value was determined as 9.337 µm, the “Dia.on % (35.0%)” value is recorded as 14.546 µm and the “Dia.on % (70.0%)” value was determined as 42.5575 µm. In series [2] (Dist. Base: Volume), the “Dia.on % (90.0%)” value was 296.388 µm; the “Particle size, C.V.” value amounted to 144.70%; the “Particle size, Mean” value was determined as 86.383 µm; the “Particle size, Median” value is on record as 20.638 µm. Also, in series [2] (Dist. Base: Volume), the “SP. Area” value was found to be 5004 cm^2/cm^2.

`Fc1ccc([C@@H]2CCNC[C@H]2COc2ccc3c(c2)OCO3)cc1` [Paroxetine, (−)-trans-4R-(4′-fluorophenyl)-3S[(3′,4′-methylenedioxyphenoxy)methyl]piperidine hydrochloride (hemihydrate)]: in series [4] (setting [6]), the “Cmax at steady state, mean” value is 61.7 ng/mL; the “Cmin at steady state, mean” value was 30.7 ng/mL; the “Tmax at steady state, mean” value was 5.2 h; the “t1/2 at steady state, mean” value is 21.0 h. In series [4] (setting [7]), the “steady state Cmax relative to prediction from single dose studies” value is given as “about 6 times”, the “steady state Cmin relative to prediction from single dose studies” value is about 14 times and the “steady state drug exposure based on AUC0-24 relative to prediction from single dose data” value is “about 8 times”. The “time to steady state Paroxetine concentrations” value in series [4] (30 mg tablets daily, most subjects) was “approximately 10 days”. Besides, in series [4] (setting [8]), the “increase of AUC when administered with food” value is 6% and the “increase of Cmax when administered with food” value is 29%. Besides, the “time to reach peak plasma concentration” value in series [4] (single dose with food) is 4.9 h. Also, the “time to reach peak plasma concentration” value in series [4] (single dose without food) was 6.4 h. Also, in series [2], the “D (v, 0.9)” value was “D (v, 0.9) = 16.56 µm”; the “D (v. 0.1)” value was “D (v. 0.1) = 0.85 […]mMedian,”; the “Mean, D [4, 3]” value was “Mean, D [4, 3] = 11.02 µm”; the “Median, D (v, 0.5)” value was “D (v, 0.5) = 4.44 µm”. Besides, in series [2], the Span entry was “Span = 3.541E+00” and the Uniformity entry was “Uniformity = 1.980E+00”.

In the case of `CN[C@H]1CC[C@@H](c2ccc(Cl)c(Cl)c2)c2ccccc21.Cl` [Sertraline, (1S-cis)-4(3,4-dichlorophenyl)-1,2,3,4-tetrahydro-N-methyl-1-naphthalenamine hydrochloride], the Tmax in series [5] (oral concentrate, single dose with food) is 7.0 h. In addition, the “increase of Cmax with food” value in series [5] (tablet, single dose with and without food) was 25%.

Source of the values: US20080138411A1, “Modified Release Formulations Of Selective Serotonin Re-Uptake Inhibitors” (priority 2002, published 2008).
